Measurements from ChEMBL document CHEMBL5291721, “A preclinical secondary pharmacology resource illuminates target-adverse drug reaction associations of marketed drugs” (Nat Commun, 2023).

Legend:
Progesterone receptor = molecular target: T1, Progesterone receptor (Homo sapiens, UniProt P06401)
T1 sequence (P06401 whole entry): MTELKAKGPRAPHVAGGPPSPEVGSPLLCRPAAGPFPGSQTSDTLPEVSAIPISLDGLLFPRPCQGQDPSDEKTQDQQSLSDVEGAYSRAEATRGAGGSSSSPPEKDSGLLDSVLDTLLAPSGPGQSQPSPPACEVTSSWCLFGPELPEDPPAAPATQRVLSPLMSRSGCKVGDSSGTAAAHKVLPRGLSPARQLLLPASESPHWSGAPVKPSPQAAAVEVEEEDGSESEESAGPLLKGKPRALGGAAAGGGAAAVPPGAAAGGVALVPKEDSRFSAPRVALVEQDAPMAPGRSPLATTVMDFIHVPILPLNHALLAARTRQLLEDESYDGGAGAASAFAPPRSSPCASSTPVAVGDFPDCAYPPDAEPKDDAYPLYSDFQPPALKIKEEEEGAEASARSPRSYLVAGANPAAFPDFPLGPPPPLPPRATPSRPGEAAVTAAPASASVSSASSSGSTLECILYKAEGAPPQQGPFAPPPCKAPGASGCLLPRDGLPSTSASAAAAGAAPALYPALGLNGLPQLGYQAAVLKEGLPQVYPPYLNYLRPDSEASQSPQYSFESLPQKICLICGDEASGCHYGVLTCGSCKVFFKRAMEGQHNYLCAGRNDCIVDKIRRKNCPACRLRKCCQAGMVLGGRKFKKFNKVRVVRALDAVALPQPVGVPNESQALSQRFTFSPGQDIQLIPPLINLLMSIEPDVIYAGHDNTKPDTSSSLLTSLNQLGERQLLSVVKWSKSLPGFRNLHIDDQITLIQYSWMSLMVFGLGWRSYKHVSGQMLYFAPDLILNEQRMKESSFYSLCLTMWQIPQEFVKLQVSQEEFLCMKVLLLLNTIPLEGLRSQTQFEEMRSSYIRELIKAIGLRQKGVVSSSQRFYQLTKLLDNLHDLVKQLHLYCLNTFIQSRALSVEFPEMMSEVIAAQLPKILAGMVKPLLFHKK

[1] = molecular target: T2, Alpha-1A adrenergic receptor (Homo sapiens, UniProt P35348)
T2 sequence (P35348 whole entry): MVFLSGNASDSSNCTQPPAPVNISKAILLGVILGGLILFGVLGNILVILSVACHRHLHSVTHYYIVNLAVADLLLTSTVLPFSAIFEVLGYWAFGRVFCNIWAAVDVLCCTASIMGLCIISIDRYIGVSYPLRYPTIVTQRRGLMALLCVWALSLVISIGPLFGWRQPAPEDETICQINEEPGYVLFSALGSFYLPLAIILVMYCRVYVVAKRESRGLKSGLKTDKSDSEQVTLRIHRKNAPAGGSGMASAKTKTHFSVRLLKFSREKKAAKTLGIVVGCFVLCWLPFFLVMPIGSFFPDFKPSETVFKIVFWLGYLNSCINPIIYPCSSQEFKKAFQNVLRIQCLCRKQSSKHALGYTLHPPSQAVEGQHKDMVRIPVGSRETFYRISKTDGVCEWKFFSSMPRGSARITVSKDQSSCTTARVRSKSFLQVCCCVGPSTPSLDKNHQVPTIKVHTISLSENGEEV

[2] = molecular target: Voltage-dependent N-type calcium channel subunit alpha-1B (Rattus norvegicus, UniProt Q02294); assay type: functional
Chain of Voltage-dependent N-type calcium channel subunit alpha-1B (Q02294 whole entry): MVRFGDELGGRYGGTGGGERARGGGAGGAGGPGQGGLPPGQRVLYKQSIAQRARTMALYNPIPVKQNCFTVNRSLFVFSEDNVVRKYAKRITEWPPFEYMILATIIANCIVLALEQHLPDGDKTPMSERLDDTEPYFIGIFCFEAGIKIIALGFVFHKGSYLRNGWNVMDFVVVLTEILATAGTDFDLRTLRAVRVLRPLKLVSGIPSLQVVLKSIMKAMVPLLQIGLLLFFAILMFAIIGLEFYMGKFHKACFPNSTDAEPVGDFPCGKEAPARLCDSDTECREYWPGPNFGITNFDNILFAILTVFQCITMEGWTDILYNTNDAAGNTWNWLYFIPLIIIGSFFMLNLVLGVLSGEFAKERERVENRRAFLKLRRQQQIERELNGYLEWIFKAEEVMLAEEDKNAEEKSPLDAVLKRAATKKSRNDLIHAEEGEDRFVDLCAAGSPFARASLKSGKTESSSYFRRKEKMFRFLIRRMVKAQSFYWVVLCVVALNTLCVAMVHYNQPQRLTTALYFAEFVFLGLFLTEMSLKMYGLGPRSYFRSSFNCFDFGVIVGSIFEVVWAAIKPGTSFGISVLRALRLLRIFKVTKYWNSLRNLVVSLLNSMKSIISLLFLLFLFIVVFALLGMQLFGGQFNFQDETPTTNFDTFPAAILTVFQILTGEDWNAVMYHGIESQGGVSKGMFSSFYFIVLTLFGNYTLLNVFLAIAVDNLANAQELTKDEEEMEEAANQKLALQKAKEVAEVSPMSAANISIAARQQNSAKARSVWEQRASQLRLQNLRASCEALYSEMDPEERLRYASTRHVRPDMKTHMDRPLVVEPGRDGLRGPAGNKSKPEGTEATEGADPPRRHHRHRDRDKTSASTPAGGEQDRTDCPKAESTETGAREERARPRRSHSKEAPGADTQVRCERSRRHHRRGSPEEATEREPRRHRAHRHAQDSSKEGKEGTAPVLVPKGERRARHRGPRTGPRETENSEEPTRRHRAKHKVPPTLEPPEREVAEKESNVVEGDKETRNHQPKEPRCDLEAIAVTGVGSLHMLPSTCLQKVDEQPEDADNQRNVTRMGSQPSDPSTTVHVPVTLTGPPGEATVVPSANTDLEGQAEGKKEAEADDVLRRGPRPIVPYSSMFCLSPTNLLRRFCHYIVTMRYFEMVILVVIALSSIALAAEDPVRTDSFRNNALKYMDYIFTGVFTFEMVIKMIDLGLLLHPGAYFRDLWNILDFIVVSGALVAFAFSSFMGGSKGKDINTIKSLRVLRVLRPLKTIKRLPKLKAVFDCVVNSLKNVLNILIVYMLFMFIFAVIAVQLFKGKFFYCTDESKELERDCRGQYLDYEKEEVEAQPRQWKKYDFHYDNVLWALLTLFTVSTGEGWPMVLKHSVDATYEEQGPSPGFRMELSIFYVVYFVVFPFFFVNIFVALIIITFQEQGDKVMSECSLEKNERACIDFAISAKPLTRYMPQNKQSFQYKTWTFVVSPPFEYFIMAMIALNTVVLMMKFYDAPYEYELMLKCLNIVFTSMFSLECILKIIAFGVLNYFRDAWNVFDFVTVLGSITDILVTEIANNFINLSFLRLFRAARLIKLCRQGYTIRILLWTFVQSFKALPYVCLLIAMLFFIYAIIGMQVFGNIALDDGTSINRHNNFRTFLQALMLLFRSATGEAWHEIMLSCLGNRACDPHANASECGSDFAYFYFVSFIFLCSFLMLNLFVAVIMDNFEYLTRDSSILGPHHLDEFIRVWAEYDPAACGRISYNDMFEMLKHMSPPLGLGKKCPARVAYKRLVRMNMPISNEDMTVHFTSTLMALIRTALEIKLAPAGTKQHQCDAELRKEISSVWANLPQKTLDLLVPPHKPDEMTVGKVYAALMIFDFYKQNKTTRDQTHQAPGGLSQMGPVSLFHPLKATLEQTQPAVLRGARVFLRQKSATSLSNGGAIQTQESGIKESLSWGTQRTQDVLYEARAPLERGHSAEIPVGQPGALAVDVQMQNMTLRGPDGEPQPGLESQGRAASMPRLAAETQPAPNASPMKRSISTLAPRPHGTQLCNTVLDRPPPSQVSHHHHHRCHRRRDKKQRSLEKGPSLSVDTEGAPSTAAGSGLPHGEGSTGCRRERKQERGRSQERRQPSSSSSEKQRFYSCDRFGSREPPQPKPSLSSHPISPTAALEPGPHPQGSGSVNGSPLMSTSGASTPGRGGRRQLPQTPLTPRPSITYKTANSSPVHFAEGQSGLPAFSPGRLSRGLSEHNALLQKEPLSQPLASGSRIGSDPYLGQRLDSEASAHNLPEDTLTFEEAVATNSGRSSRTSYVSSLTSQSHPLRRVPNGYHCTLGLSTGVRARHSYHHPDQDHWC

[3] = molecular target: T3, Neuropeptide Y receptor type 2 (Homo sapiens, UniProt P49146)
T3 sequence (P49146 whole entry): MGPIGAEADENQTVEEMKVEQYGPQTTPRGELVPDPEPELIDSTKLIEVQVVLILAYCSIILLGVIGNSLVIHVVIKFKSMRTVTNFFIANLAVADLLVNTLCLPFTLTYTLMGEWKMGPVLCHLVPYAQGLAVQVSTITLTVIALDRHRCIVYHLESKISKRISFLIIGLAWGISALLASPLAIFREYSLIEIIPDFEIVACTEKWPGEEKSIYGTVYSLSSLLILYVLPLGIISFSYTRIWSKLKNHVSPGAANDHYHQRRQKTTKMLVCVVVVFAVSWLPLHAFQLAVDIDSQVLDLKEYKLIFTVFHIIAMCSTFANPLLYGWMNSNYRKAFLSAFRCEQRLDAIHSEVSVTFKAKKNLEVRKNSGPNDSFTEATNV

[4] = molecular target: Beta-3 adrenergic receptor (Homo sapiens, UniProt P13945)
Chain of Beta-3 adrenergic receptor (P13945 whole entry): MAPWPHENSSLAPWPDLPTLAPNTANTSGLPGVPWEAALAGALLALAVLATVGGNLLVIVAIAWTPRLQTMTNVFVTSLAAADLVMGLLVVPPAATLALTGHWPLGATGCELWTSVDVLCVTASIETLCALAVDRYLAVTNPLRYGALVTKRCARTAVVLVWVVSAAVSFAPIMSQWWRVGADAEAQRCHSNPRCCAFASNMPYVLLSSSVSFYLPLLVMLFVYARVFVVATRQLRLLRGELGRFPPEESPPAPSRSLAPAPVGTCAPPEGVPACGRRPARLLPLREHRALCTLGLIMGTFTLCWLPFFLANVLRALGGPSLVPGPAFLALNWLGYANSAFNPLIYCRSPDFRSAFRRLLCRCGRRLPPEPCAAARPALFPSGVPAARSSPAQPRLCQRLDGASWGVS

[5] = molecular target: T4, Corticotropin-releasing factor receptor 1 (Homo sapiens, UniProt P34998)
T4 sequence (P34998 whole entry): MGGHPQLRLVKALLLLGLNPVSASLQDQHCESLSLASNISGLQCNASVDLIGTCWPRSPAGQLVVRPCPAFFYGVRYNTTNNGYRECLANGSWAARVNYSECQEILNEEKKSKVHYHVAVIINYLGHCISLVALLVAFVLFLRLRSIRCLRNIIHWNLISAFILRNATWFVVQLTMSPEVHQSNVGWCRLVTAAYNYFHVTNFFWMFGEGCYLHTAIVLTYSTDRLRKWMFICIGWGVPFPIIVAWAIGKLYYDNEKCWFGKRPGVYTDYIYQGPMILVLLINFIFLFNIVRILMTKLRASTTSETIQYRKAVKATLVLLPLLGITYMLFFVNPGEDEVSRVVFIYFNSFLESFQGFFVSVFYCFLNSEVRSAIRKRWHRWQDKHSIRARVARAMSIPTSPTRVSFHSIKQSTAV

[6] = molecular target: Voltage-dependent L-type calcium channel subunit alpha-1C (Rattus norvegicus, UniProt P22002); assay type: functional
Melanocortin receptor 4 = Melanocortin receptor 4 (Homo sapiens, UniProt P32245)
Chain of Melanocortin receptor 4 (P32245 whole entry): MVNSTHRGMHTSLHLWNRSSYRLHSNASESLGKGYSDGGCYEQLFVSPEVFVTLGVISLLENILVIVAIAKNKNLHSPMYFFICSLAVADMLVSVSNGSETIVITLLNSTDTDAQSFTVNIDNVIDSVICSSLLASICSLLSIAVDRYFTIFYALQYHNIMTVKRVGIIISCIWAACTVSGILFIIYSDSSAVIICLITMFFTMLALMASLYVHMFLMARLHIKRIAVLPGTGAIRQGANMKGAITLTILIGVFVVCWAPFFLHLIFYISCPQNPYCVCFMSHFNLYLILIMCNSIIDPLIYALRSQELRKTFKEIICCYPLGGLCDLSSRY

[7] = molecular target: T5, Muscarinic acetylcholine receptor M2 (Homo sapiens, UniProt P08172)
T5 sequence (P08172 whole entry): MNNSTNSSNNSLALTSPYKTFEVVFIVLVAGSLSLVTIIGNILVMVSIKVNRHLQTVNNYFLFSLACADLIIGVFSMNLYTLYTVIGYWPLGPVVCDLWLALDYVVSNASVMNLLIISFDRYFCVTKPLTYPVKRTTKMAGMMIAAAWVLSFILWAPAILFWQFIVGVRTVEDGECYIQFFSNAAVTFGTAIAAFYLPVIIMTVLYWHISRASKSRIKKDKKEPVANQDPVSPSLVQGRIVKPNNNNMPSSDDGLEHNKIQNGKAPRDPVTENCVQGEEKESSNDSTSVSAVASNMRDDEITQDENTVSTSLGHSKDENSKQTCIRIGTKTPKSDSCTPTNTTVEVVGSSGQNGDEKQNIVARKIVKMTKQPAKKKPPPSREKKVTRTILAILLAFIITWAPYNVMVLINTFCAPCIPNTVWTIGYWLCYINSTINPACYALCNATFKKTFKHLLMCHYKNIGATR

[8] = molecular target: T2, Alpha-1A adrenergic receptor; remark: listed apart in the source
Also: assay procedure not described here.

SMILES | AC50 (Progesterone receptor) | AC50 [1] | AC50 [2] | AC50 [3] | AC50 [4] | AC50 [5] | AC50 [6] | AC50 (Melanocortin receptor 4) | AC50 [7] | AC50 [8]
CC[C@@H](CO)NC(=O)[C@@H]1C=C2c3cccc4c3c(cn4C)C[C@H]2N(C)C1 [METHYSERGIDE] | 16 µM | > 10 µM | > 10 µM | > 30 µM | > 30 µM | > 30 µM | > 10 µM | > 30 µM | > 10 µM | –
CC(C)[C@H](N)C(=O)OCCOCn1cnc2c(=O)[nH]c(N)nc21 [VALACYCLOVIR] | > 30 µM | > 10 µM | > 10 µM | > 30 µM | > 30 µM | > 30 µM | > 10 µM | > 30 µM | > 10 µM | > 10 µM
O=C(O)Cc1ccccc1Nc1c(Cl)cccc1Cl [DICLOFENAC] | > 30 µM | 5 µM | > 10 µM | > 30 µM | > 30 µM | > 30 µM | > 10 µM | > 30 µM | > 10 µM | > 10 µM
O=C1Cc2cc(CCN3CCN(c4nsc5ccccc45)CC3)c(Cl)cc2N1 [ZIPRASIDONE] | 21.8 µM | 0.0275 µM | > 10 µM | > 30 µM | > 30 µM | > 30 µM | > 10 µM | > 30 µM | > 10 µM | 0.0317 µM
CN(CCOc1ccc(CC2SC(=O)NC2=O)cc1)c1ccccn1 (stereo unspecified) [ROSIGLITAZONE] | > 30 µM | – | > 10 µM | > 30 µM | > 30 µM | > 30 µM | > 30 µM | 23.7 µM | > 10 µM | > 10 µM
CC(C(=O)O)c1ccc2oc(-c3ccc(Cl)cc3)nc2c1 (stereo unspecified) [BENOXAPROFEN] | – | – | – | – | – | – | > 30 µM | – | – | –
CNC(=C[N+](=O)[O-])NCCSCc1csc(CN(C)C)n1 [NIZATIDINE] | – | > 10 µM | – | – | – | – | > 10 µM | > 10 µM | – | –
CCCCCCCN(CC)CCCC(O)c1ccc(NS(C)(=O)=O)cc1 (stereo unspecified) [IBUTILIDE] | – | – | – | – | – | – | > 30 µM | – | – | –
O=C(O)Cc1ccccc1Oc1ccc(Cl)cc1Cl [FENCLOFENAC] | > 30 µM | > 10 µM | > 10 µM | > 30 µM | > 30 µM | > 30 µM | > 10 µM | > 30 µM | > 10 µM | > 10 µM
CCCc1nc2c(C)cc(-c3nc4ccccc4n3C)cc2n1Cc1ccc(-c2ccccc2C(=O)O)cc1 | > 30 µM | > 10 µM | > 10 µM | > 30 µM | > 30 µM | > 30 µM | > 30 µM | > 30 µM | > 10 µM | > 10 µM
CCCc1cc(=O)[nH]c(=S)[nH]1 [PROPYLTHIOURACIL] | – | > 10 µM | – | – | – | – | > 10 µM | > 10 µM | – | –
Cn1cc(C(=O)[C@@H]2CCc3nc[nH]c3C2)c2ccccc21 [RAMOSETRON] | – | – | – | – | – | – | > 30 µM | – | – | –
CCOc1nc2cccc(C(=O)O)c2n1Cc1ccc(-c2ccccc2-c2nnn[nH]2)cc1 | > 30 µM | > 10 µM | > 10 µM | > 30 µM | > 30 µM | > 30 µM | > 10 µM | > 10 µM | > 10 µM | > 10 µM
Cc1nc(Nc2ncc(C(=O)Nc3c(C)cccc3Cl)s2)cc(N2CCN(CCO)CC2)n1 [DASATINIB] | > 30 µM | > 10 µM | > 10 µM | > 10 µM | – | – | > 10 µM | > 30 µM | > 10 µM | > 10 µM
Cc1ccc(C)c(OCCCC(C)(C)C(=O)O)c1 [GEMFIBROZIL] | > 30 µM | 13.7 µM | > 10 µM | > 30 µM | > 30 µM | > 30 µM | > 10 µM | > 30 µM | > 10 µM | > 10 µM
CCCNC(=O)NS(=O)(=O)c1ccc(Cl)cc1 [CHLORPROPAMIDE] | > 30 µM | 5.7 µM | > 10 µM | > 30 µM | > 30 µM | > 30 µM | > 10 µM | > 30 µM | – | –
COc1cc(C(C)=O)ccc1OCCCN1CCC(c2noc3cc(F)ccc23)CC1 [ILOPERIDONE] | – | – | – | – | – | – | – | – | – | 0.0018 µM
COc1cc(C(=O)NS(=O)(=O)c2ccccc2C)ccc1Cc1cn(C)c2ccc(NC(=O)OC3CCCC3)cc12 [ZAFIRLUKAST] | – | > 10 µM | – | – | – | – | > 10 µM | > 10 µM | – | –
CC=CC1=C(C(=O)O)N2C(=O)[C@@H](NC(=O)[C@H](N)c3ccc(O)cc3)[C@H]2SC1 [CEFPROZIL] | – | – | – | – | – | – | > 30 µM | > 30 µM | – | –
CC(CN1c2ccccc2Sc2ccccc21)N(C)C (stereo unspecified) [PROMETHAZINE] | > 30 µM | 0.0996 µM | > 10 µM | > 30 µM | > 30 µM | > 30 µM | > 10 µM | 25 µM | 0.161 µM | 0.162 µM
CC[C@H](C)C(=O)O[C@H]1C[C@@H](C)C=C2C=C[C@H](C)[C@H](CC[C@@H]3C[C@@H](O)CC(=O)O3)[C@H]21 [LOVASTATIN] | 29.7 µM | > 10 µM | > 10 µM | > 30 µM | 11.6 µM | > 30 µM | > 10 µM | > 30 µM | > 10 µM | > 10 µM
CC(C)C[C@H](NC(=O)[C@@H](O)[C@H](N)Cc1ccccc1)C(=O)O [UBENIMEX] | – | – | – | – | – | – | > 30 µM | – | – | –
CC(=O)Nc1ccc(CC(=O)O)cc1 [ACTARIT] | – | – | – | – | – | – | > 30 µM | – | – | –
